Converted amounts (≈) assume the structure as drawn.

In experiment [1] the test system is panBCD operon (panB promoter). In words: RNA (transcriptional) profiling of panB, panC, panD mRNA levels in treated bacterial cells. The class given is cell-based, B. subtilis. The settings on record: LB medium, 37° C.
The subject of experiment [2] is B. subtilis reporter strain PY79(amy::PpanB::lacZ, cat). In words: Minimum inhibitory concentration (MIC) in 96-well microtiter plate, OD600 after about 18 hours. The class given is cell-based. The settings on record: Bacillus subtilis. On the procedure:
The minimum inhibitory concentrations (MIC) for trimethoprim and sulfamethoxazole were determined for each of the reporter strains. To determine the MIC, a compound of interest (e.g., trimethoprim or sulfamethoxazole) was placed in a 96-well microtiter plate such that the concentration of the compound varies in various wells of the plate (e.g., by using a series of 2-fold dilutions of the compound). Approximately 5,000 cells from a logarithmically-growing culture (e.g., the B. subtilis strain PY79) in Luria broth were added to each well (e.g., in a volume of 50–80 μl). The plate then was incubated at 37° C. for approximately 18 hours. The OD600 was then read to measure cell growth in each well of the plate. The lowest concentration of the compound that leads to complete killing of the culture (i.e., the concentration of compound for which the OD600 nm is equal to a control well that contains only media and the test compound) is deemed the MIC for the particular compound and bacterial strain.

The subject of the next experiment is PABA uptake. The settings on record: 14C-PABA, Herrington (1994) Anal Biochem 216:427–430; cited from earlier work.
Setting [3] is: 10 μg/ml trimethoprim, 90 minutes.

The term MIC denotes the lowest concentration that inhibits growth of the organism. Low readings indicate a more susceptible organism, high ones a less susceptible organism. Regarding `Cc1cc(NS(=O)(=O)c2ccc(N)cc2)no1` [sulfamethoxazole], the “panD mRNA levels induced” value in experiment [1] (0.5 mg/ml sulfamethoxazole, 80 minutes) came to 148 fold. The MIC in experiment [2] is 500 µg/mL (≈ 1970 µM).
On to `Nc1ccc(S(=O)(=O)Nc2nccs2)cc1` [sulfathiazole], for which the PABA uptake result in the experiment on PABA uptake was “inhibited”.
As to `COc1cc(Cc2cnc(N)nc2N)cc(OC)c1OC` [trimethoprim], in experiment [1] (setting [3]), the “panB mRNA levels induced” value was determined as 10 fold, the “panC mRNA levels induced” value was 54 fold and the “panD mRNA levels induced” value turned out to be 38 fold. The MIC in experiment [2] is 3 µg/mL (≈ 10.3 µM). Besides, the PABA uptake result in the experiment with PABA uptake is listed as “inhibited”.

(Values after patent US7202023B2 (priority 2000, dated 2007).)
